According to patent publication US20220312762A1, “USE OF ENCAPSULATED STEROLS TO MODIFY GROWTH OF CROPS, CONTROL, AGRICULTURAL PESTS AND AS NON-TOXIC PRE-EMERGENT HERBICIDES” (The Texas A&M University System, priority 2019, published 2022):

Key:
[1] = test system: Arabidopsis thaliana seeds; assay: Arabidopsis seed germination on sterol-supplemented media; format: in vivo; details: for decrease in germination: 100 μM exogenous sterol
Protocol: (§1) Plants and Plant Growth Conditions. Cholesterol (C3045, Sigma-Aldrich, USA), stigmasterol (S2424, Sigma-Aldrich, USA), and β-sitosterol (567152, Millipore-Sigma, USA) were prepared as stock solutions with a slight modification from that described in literature. Sterols were dissolved in 100% ethanol at 1.5 mM concentration and combined with methyl-β-cyclodextrin (MβCD) (Sigma-Aldrich, USA) at a molar ratio of 1:3 to a final concentration of 1-300 μM sterol and 1-900 μM MβCD. The probe was either sonicated for 30 minutes and vortexed for 15 minutes before use, or just vortexed for 30 min before use. To make a powered water soluble form, the sterol (40-70% w/w β-sitosterol) is dissolved in 100% ethanol and then solubilized in β-cyclodextrins or their derivatives in water. The solution is then reduced by evaporation or freeze-drying to a powdered form.
(§2) The wild-type and transgenic seeds of Arabidopsis thaliana were surface-sterilized with 70% ethanol, rinsed in sterile distilled water (+/− sterol) and incubated at 4° C. in the dark for 48 hr. The imbibed seeds were then planted either planted in Petri dishes or in hydroponic containers. For Petri dish growth, 1% (w/v) agar (Sigma-Aldrich, USA) was dissolved in ½ strength Murashige and Skoog medium containing vitamins (Caisson Labs, USA) (+/− sterol), and the pH was adjusted to between 5.6 and 5.8. The seedlings were grown in vertically placed Petri dishes containing this medium for 5-10 days at 22° C. under the continuous white light (50 μmol m^−2sec^−1 photosynthetically active radiation). Hydroponic culture was a modification of that described in previous literature. The seeds were placed on a mesh inserted into the bottom of a sterile polypropylene 2 oz cup with a lid (TY-M2-100, Bingwu, sold on Amazon) inset into either a 4 oz sterile polypropylene cup (TY-M4-N50 Bingwu, sold on Amazon) or a black 5.5 oz sterile polypropylene Dart Conex cup (B07BK1DPPS, Table Top King, sold on Amazon). Enough medium (½ strength Murashige and Skoog medium containing vitamins (Caisson Labs, USA) (+/− sterol), and the pH was adjusted to between 5.6 and 5.8) was added to bring it up to the level of the mesh. They were grown for […] to maturity (˜75 days) in an 18:6 hr photoperiod at 22° C. with 100 […] photosynthetically active. Following growth, they were then harvested for sterol analysis, leaf venation analysis, or fresh and dry weight analysis, or photographed for image analysis of root, hypocotyl, and stem growth and color. Seed from typical crop plants, Nicotiana tabacum (tobacco) and Zea mays (corn) were also sown in defined medium in the presence and absence of encapsulated sterol to assess percent germination after one week. Common weed seeds (Amaranthus palmeri, Poa annua, and Ambrosia sp.) collected from natural sources were either grown in defined media (agar and Mirashige and Skoog medium) or planted in natural soils (sandy loam) in 2 inch inserts in plastic one foot square flats. They were treated with 100-500 microMolar phytosterol mix (40% β-sitosterol, 20% campesterol, 7% stigmasterol (SKU BSIT100, Bulk Supplements) with a 3:1 molar ratio of methyl-β-cyclodextrin in water. Growth was assessed in treated and untreated (only water) by seedling emergence in days after planting in a greenhouse with natural lighting.
(§3) Materials and Methods. Arabidopsis seeds were given a pre-cold treatment with a mixture of sterol, cholesterol (Sigma-Aldrich) or stigmasterol (Sigma-Aldrich) (1 microMolar, 10 microMolar and 100 microMolar) and methyl-β-cyclodextrin (Sigma-Aldrich) (1:3 ratio) and then planted on Murashige and Skoog-½ strength (Caisson's Lab) 1% agar media supplemented with a mixture of respective sterol and cyclodexterin (1:3 ratio). Common weed seeds (Amaranthus palmeri, Poa annua, and Ambrosia sp.) collected from natural sources were planted in natural soils (sandy loam) in 2 inch inserts in plastic one foot square flats. […]

[2] = test system: Arabidopsis thaliana; assay: Arabidopsis growth and development on sterol-supplemented media; format: in vivo; details: for growth phenotype: 100 μM exogenous sterol; for root anatomy: 100 μM sterol; for biomass: 8-days old seedlings on sterol-supplemented media, high sterol (FIG. 5A, 5B); for chlorophyll levels: plants grown on sterol media (FIG. 4A-4D); for root and root hair growth and development: sterol-supplemented media (FIG. 3A-3E)
Protocol: as §1, §2, §3

[3] = 10 microMolar encapsulated sterol
[4] = 100 microMolar encapsulated sterol

CC(C)CCC[C@@H](C)[C@H]1CC[C@H]2[C@@H]3CC=C4C[C@@H](O)CC[C@]4(C)[C@H]3CC[C@]12C [cholesterol, Cholesterol]
decrease in germination [1]: 40%
seed germination (in words) [1, 3]: seeds germinate
seed germination (in words) [1, 4]: significantly inhibit
germination inhibited ([1]; 300 microMolar encapsulated sterol, after a week of growth (FIG. 6A)): 90%
vein pattern ([2]; 100 μM): altered vein pattern
growth phenotype [2]: severe dwarfism
root anatomy [2]: altered root anatomy
biomass [2]: reduced biomass
chlorophyll levels [2]: change chlorophyll levels
root and root hair growth and development [2]: alters

CC[C@H](/C=C/[C@@H](C)[C@H]1CC[C@H]2[C@@H]3CC=C4C[C@@H](O)CC[C@]4(C)[C@H]3CC[C@]12C)C(C)C [stigmasterol]
decrease in germination [1]: 35%
seed germination (in words) [1, 3]: seeds germinate
seed germination (in words) [1, 4]: significantly inhibit
growth phenotype [2]: severe dwarfism
root anatomy [2]: altered root anatomy
biomass [2]: reduced biomass
chlorophyll levels [2]: change chlorophyll levels
root and root hair growth and development [2]: alters
